# Data: article PMC8824275, “Gastrointestinal Stability and Cytotoxicity of Bacteriocins From Gram-Positive and Gram-Negative Bacteria: A Comparative in vitro Study” (Frontiers in Microbiology, 2022)
# “Also recorded” adds a separate entry of the source.
# How the values were obtained:
# [1] = In vitro simulated GI digestion (INFOGEST, static), stability by RP-HPLC and LC-MS; type: in vitro ADME; settings: 37°C
# Experimental: In vitro simulated oral, gastric, and small intestinal digestion was adopted from standardized INFOGEST protocol ([Brodkorb et al., 2019]) in three independent replicates. The initial concentration of bacteriocins was selected in order to have sufficient quantity in the digestion mixture to conduct both activity assay by agar well diffusion and by RP-HPLC for quantification.
# The entire digestion procedure was performed at 37°C.
# Oral conditions: 5 mL of a 8 mg/mL bacteriocin solution (in water) were mixed with simulated salivary fluid [SSF: KCl 15.1 mM, KH2PO4 3.7 mM, NAHCO3 13.6 mM, MgCl2(H2O)6 0.15 mM, (NH4)2CO3 0.06 mM, HCl 1.1mM, CaCl2 (H2O)2 1.5 mM] in 1:1 (v/v) ratio, and the final solution was incubated for 2 min at 37°C.
# Gastric conditions: The sample from the oral condition was diluted in 1:1 (v/v) ratio with simulated gastric fluid [SGF: KCl 6.9 mM, KH2PO4 0.9 mM, NAHCO3 25 mM, NaCl 47.2 mM, MgCl2(H2O)6 0.12 mM, (NH4)2CO3 0.5 mM, HCl 15.6 mM, CaCl2 (H2O)2, 0.15 mM] containing pepsin (2000 U/mL in the gastric mixture), and lipase (60 U/mL in the gastric mixture). […]
# Small intestine conditions: Samples from gastric conditions were diluted in 1:1 (v/v) ratio with 20 mL of simulated intestinal fluid[SIF KCl 6.8 mM, KH2PO4 0.8 mM, NAHCO3 85 mM, NaCl 38.4 mM, MgCl2(H2O)6 0.33 Mm, HCl 8.4 mM, CaCl2 (H2O)2, 0.6 mM] containing bile salt (10 mmol/L in the final […] mixture) and pancreatin (100 U/mL in final digestion mixture) to acquire a final volume of 40 mL. […] Bacteriocins in the different samples were analyzed by analytical HPLC-UV and liquid-chromatography mass spectrometry (LC-MS/MS). […]
# The digestion mixtures were analyzed by LC-MS/MS on an ultra-high-performance LC system (Ultimate 3000 RSLC, Thermo Fisher Scientific) connected to high-resolution electrospray ionization – quadrupole – time of flight (ESI-Q-TOF) mass spectrometer (Maxis II ETD, Bruker Daltonics). […] Data-dependent LC-MS/MS data were acquired in positive ion mode in the mass range m/z 250–2500, using collision induced dissociation with collision energy calculated from m/z and charge states. […]
# Caco-2 cells = test: LDH release assay (membrane integrity); type: cell-based, human; settings: Caco-2, CytoTox-ONE LDH release, 0.4 to 400 μg/mL, 24 h (method: 48 h), 37°C, mean of three experiments
# Experimental: The human colonic adenocarcinoma (Caco-2) cells were purchased from ATCC. Cells were cultured in DMEM medium in a humidified atmosphere containing 5% CO2 at 37°C. For the LDH release assay, cells were seeded in 96 well flat bottom culture plates (1 × 10^4 cells/well). Caco-2 cells, which have been frequently used for permeability studies across the intestinal epithelium, were selected in this study for evaluating the cytotoxicity of bacteriocins and their interaction with intestinal epithelium during GI transit to determine their cytotoxicity.
# The CytoTox-ONE™ cytotoxicity assay kit (Promega, United States) was used to measure the LDH release. […] Lysis solution (Promega) was added in a 1:1 ratio to selected control wells to induce the maximal release of LDH and the plate was incubated for 5 min. […] Finally, stop solution was then added to each well, and absorbance was measured using a spectrophotometer (Tecan Spark 20M, Morrisville, NC, United States) at excitation/emission wavelengths of 560/590 nm. Each compound-treated value was blanked with the values of the control-treated cells and cytotoxicity was expressed as percentage of the maximal LDH release (lysis solution treated cells), calculated by the following formula: […]
smiles,measurement,setting,value
C=C(NC(=O)[C@@H](NC(=O)[C@H](Cc1c[nH]cn1)NC(=O)[C@@H](NC(=O)[C@H](CO)NC(=O)[C@@H]1CS[C@@H](C)[C@H]2NC(=O)[C@H](C)NC(=O)[C@H](NC(=O)[C@H](CCCCN)NC(=O)[C@H](CCSC)NC(=O)[C@H](CC(N)=O)NC(=O)[C@@H]3CS[C@@H](C)[C@@H](NC(=O)[C@H](CCCCN)NC(=O)[C@@H]4CS[C@@H](C)[C@@H](NC(=O)[C@@H]5CSC[C@@H](NC(=O)/C(=C/C)NC(=O)[C@@H](N)[C@@H](C)CC)C(=O)N[C@@H]([C@@H](C)CC)C(=O)NC(=C)C(=O)N[C@@H](CC(C)C)C(=O)N5)C(=O)N5CCC[C@H]5C(=O)NCC(=O)N4)C(=O)NCC(=O)N[C@@H](C)C(=O)N[C@@H](CC(C)C)C(=O)N[C@@H](CCSC)C(=O)NCC(=O)N3)[C@H](C)SC[C@H](NC2=O)C(=O)N[C@@H](CC(N)=O)C(=O)N1)[C@@H](C)CC)C(C)C)C(=O)N[C@@H](CCCCN)C(=O)O [nisin Z],Stability in gastric conditions,"[1]; SGF with pepsin 2000 U/mL and lipase 60 U/mL, pH 3, 90 min, shaking, RP-HPLC and activity, three independent replicates",good gastric stability
same,Stability in small intestinal conditions,"[1]; SIF with bile salt 10 mmol/L and pancreatin 100 U/mL, pH 7, 2 h, RP-HPLC and activity, three independent replicates",significantly degraded; also recorded: completely degraded
same,Stability in the GI tract (whole simulated digestion),[1]; oral + gastric + small intestinal conditions,complete degradation
same,Membrane integrity (LDH release),Caco-2 cells,uncompromised
